{"source": "patent US7335770B2", "about": "“Triazine compounds and their analogs, compositions, and methods” (Reddy U5 Therapeutics, Inc., priority 2004, dated 2008)", "test_system": "smooth muscle cells (SMC)", "assay": "anti-proliferation assay (perlecan)", "assay_type": "cell-based", "conditions": "for activity in anti-proliferation assay (Perlecan), in words: using the same activity scale used in Table 3; for IC50: anti-proliferation assay (perlecan)", "experimental": "The activity scale used in Table 3 as follows (numbers are inclusive): “+++” represents IC50 of less than about 3 μM; “++” represents IC50 of between about 3 and about 7 μM; and “+” represents IC50 of greater than about 7 μM. In addition, compounds, to include compositions thereof, encompassed within the scope of structures Ia-XXIVa, respectively, or listed in Tables 1A and 1E may be likewise employed in this embodiment and/or aspect of the present invention. Further, any hydrogen atoms that are required for any atom to attain its usual valence in a structure presented in Table 3, whether a carbon atom or a heteroatom, should be inferred if it is not specifically indicated.\nIn addition to the above compounds, the following compounds and compositions comprising these compounds are active in an anti-proliferation assay (Perlecan). These compounds and compositions comprising these compounds are, among other things, generally useful for treating cardiovascular disorders associated with proliferative activity. Specifically, these compounds include N^2-cycloheptyl-N^4-(3-fluoro-4-methoxyphenyl)-N^6-methyl-N^6-(1-methyl-piperidin-4-yl)-1,3,5-triazine-2,4,6-triamine, and N^2-cycloheptyl-N^4-methyl-N^4-(1-methyl-piperidin-4-yl)-N^6-naphthalen-2-yl-1,3,5-triazine-2,4,6-triamine.\nMethods for identifying the activity and screening for one or more of these compounds or molecules that induce synthesis of proteoglycans such as HSPG (heparan sulfate proteoglycan) are taught in U.S. patent application Ser. No. 10/091,357, which is incorporated herein in its entirety. Assays of effects of compounds in vivo are also taught in the incorporated references and are known to those skilled in the art. In general, methods comprise the addition of such compounds to assays and measurement of HSPG synthesis including, but not limited to, the production of syndecans, glypicans and perlecans, for example, syndecans 1, 2 and 4; and glypican-1. Other assays that can be used to determine the activity of the compounds of the present invention include other methods for measuring the induction of perlecan synthesis. For example, in one assay, perlecan is induced in cells by certain inducers, and the response is measured. Compounds of the present invention are then added to a replicate assay and the effect on perlecan induction is determined. Using such methods, compounds are determined that can either inhibit perlecan, elevate induction of perlecan, or that have no effect at all. Those compounds that are effective as therapeutic agents can then be used in animals, humans or patients with cellular proliferation disease aspects, such as vascular-associated diseases or SMC proliferation pathologies.\nAnother assay for determining compounds having SMC effects comprises adding a composition suspected of affecting SMC proliferation to smooth muscle cells in growth medium or serum-free medium. The change in cell proliferation can be measured by methods known to those skilled in the art, such as incorporation of labeled nucleotides into dividing cells' DNA, and compared to the proliferation of cells which are not treated with the compound. Other measurements include directly determining levels of HSPG synthesis by measuring the amount or change in amount of HSPG such as with ELISA for HSPGs, and compared to the amount of HSPG synthesis in untreated cells. Other indirect or direct measurement are contemplated by the present invention and are known to those skilled in the art. For example, such methods include, but are not limited to, measurement of RNA levels, RT-PCR, Northern blotting, Western blotting promoter-based assays to identify compounds that affect one or more proteoglycans and assays for proteoglycan biological activity shown by recombinant proteins, partially purified proteins, or lysates from cells expressing proteoglycans in the presence or absence of compounds of interest.", "key": {"[1]": {"conditions": "class of IC50, read-out: Activity (note 1)"}, "[2]": {"conditions": "some cells print no unit, read-out: Avg IC-50"}}, "note": "Where two headings read alike, the source gives them in different places."}
{"compound": "CCN1CCCC1CNc1nc(Nc2ccc(OC)c(F)c2)nc(N2CCN(CC(=O)N3CCCC3)CC2)n1.Cl.Cl", "note": "(stereo not drawn)", "values": [{"measurement": "activity in anti-proliferation assay (Perlecan), in words", "result": "high activity"}]}
{"compound": "COc1ccc(Nc2nc(NCCNC(=O)CCCCC3SCC4NC(=O)NC43)nc(NC3CCCCCC3)n2)cc1Cl", "note": "(stereo not drawn)", "values": [{"measurement": "activity in anti-proliferation assay (Perlecan), in words", "result": "high activity"}]}
{"compound": "COc1ccc(Nc2nc(NC3CCCCCC3)nc(-c3c(O)ccc4ccccc34)n2)cc1Cl", "note": "[1-[4-(3-Chloro-4-methoxy-phenylamino)-6-cycloheptylamino-[1,3,5]triazin-2-yl]-naphthalen-2-ol]", "values": [{"measurement": "activity in anti-proliferation assay (Perlecan), in words", "result": "high activity"}]}
{"compound": "COc1ccc(Nc2nc(NC3CCCCCC3)nc(Oc3ccc(C(C)=O)cc3Cl)n2)cc1Cl", "note": "[1-{3-Chloro-4-[4-(3-chloro-4-methoxy-phenylamino)-6-cycloheptylamino-[1,3,5]triazin-2-yloxy]-phenyl}-ethanone]", "values": [{"measurement": "activity in anti-proliferation assay (Perlecan), in words", "result": "high activity"}]}
{"compound": "COc1ccc(Nc2nc(NC3CCCCCC3)nc(OC3CCCN(C(C)=O)C3)n2)cc1Cl", "note": "(stereo not drawn) [1-{3-[4-(3-Chloro-4-methoxy-phenylamino)-6-cycloheptylamino-[1,3,5]triazin-2-yloxy]-piperidin-1-yl}-ethanone]", "values": [{"measurement": "activity in anti-proliferation assay (Perlecan), in words", "result": "high activity"}]}
{"compound": "COc1ccc(Nc2nc(NC3CCCCCC3)nc(Oc3ccc(C(C)=O)cc3)n2)cc1Cl", "note": "[1-{4-[4-(3-Chloro-4-methoxy-phenylamino)-6-cycloheptylamino-[1,3,5]triazin-2-yloxy]-phenyl}-ethanone]", "values": [{"measurement": "activity in anti-proliferation assay (Perlecan), in words", "result": "high activity"}]}
{"compound": "CCN1CCCC1CNc1nc(Nc2ccc(OC)c(F)c2)nc(N2CCN(CC(=O)N3CCCC3)CC2)n1", "note": "(stereo not drawn) [2-{4-[4-[(1-Ethyl-pyrrolidin-2-ylmethyl)-amino]-6-(3-fluoro-4-methoxy-phenylamino)-[1,3,5]triazin-2-yl]-piperazin-1-yl}-1-pyrrolidin-1-yl-ethanone]", "values": [{"measurement": "activity in anti-proliferation assay (Perlecan), in words", "result": "high activity"}]}
{"compound": "CCc1occc(=O)c1Oc1nc(Nc2ccc(OC)c(Cl)c2)nc(NC2CCCCCC2)n1", "note": "[3-[4-(3-Chloro-4-methoxy-phenylamino)-6-cycloheptylamino-[1,3,5]triazin-2-yloxy]-2-ethyl-pyran-4-one]", "values": [{"measurement": "activity in anti-proliferation assay (Perlecan), in words", "result": "high activity"}]}
{"compound": "CCOC(=O)/C=C/c1ccc(Oc2nc(Nc3ccc(OC)c(Cl)c3)nc(NC3CCCCCC3)n2)cc1", "note": "[3-{4-[4-(3-Chloro-4-methoxy-phenylamino)-6-cycloheptylamino-[1,3,5]triazin-2-yloxy]-phenyl}-acrylic acid ethyl ester]", "values": [{"measurement": "activity in anti-proliferation assay (Perlecan), in words", "result": "high activity"}]}
{"compound": "COc1ccc(Nc2nc(NC3CCCCCC3)nc(NC3CCN(C(=O)CCCCC4SCC5NC(=O)NC54)CC3)n2)cc1Cl", "note": "(stereo not drawn) [4-(5-{4-[4-(3-Chloro-4-methoxy-phenylamino)-6-cycloheptylamino-[1,3,5]triazin-2-ylamino]-piperidin-1-yl}-5-oxo-pentyl)-tetrahydro-thieno[3,4-d]imidazol-2-one]", "values": [{"measurement": "activity in anti-proliferation assay (Perlecan), in words", "result": "high activity"}]}
{"compound": "COc1ccc(Nc2nc(NC3CCCCCC3)nc(-c3ccc(O)cc3O)n2)cc1Cl", "note": "[4-[4-(3-Chloro-4-methoxy-phenylamino)-6-cycloheptylamino-[1,3,5]triazin-2-yl]-benzene-1,3-diol]", "values": [{"measurement": "activity in anti-proliferation assay (Perlecan), in words", "result": "high activity"}]}
{"compound": "COc1ccc(Nc2nc(NC3CCCCCC3)nc(Oc3ccc(/C=N\\O)cc3)n2)cc1Cl", "note": "[4-[4-(3-Chloro-4-methoxy-phenylamino)-6-cycloheptylamino-[1,3,5]triazin-2-yloxy]-benzaldehyde oxime]", "values": [{"measurement": "activity in anti-proliferation assay (Perlecan), in words", "result": "high activity"}]}
{"compound": "COc1ccc(Nc2nc(NC3CCCCCC3)nc(Oc3ccc(C=O)cc3)n2)cc1Cl", "note": "[4-[4-(3-Chloro-4-methoxy-phenylamino)-6-cycloheptylamino-[1,3,5]triazin-2-yloxy]-benzaldehyde]", "values": [{"measurement": "activity in anti-proliferation assay (Perlecan), in words", "result": "high activity"}]}
{"compound": "COc1ccc(Nc2nc(NC3CCCCCC3)nc(Oc3ccccc3C#CC(C)(C)O)n2)cc1Cl", "note": "[4-{2-[4-(3-Chloro-4-methoxy-phenylamino)-6-cycloheptylamino-[1,3,5]triazin-2-yloxy]-phenyl}-2-methyl-but-3-yn-2-ol]", "values": [{"measurement": "activity in anti-proliferation assay (Perlecan), in words", "result": "high activity"}]}
{"compound": "CCN1CCCC1CNc1nc(NC2CCCCCC2)nc(NC2CCC(O)CC2)n1", "note": "(stereo not drawn) [4-{4-Cycloheptylamino-6-[(1-ethyl-pyrrolidin-2-ylmethyl)-amino]-[1,3,5]triazin-2-ylamino}-cyclohexanol]", "values": [{"measurement": "activity in anti-proliferation assay (Perlecan), in words", "result": "high activity"}]}
{"compound": "COc1ccc(Nc2nc(NC3CCCCCC3)nc(Oc3ccc(C#CC(C)(C)O)cc3)n2)cc1Cl", "note": "[4-{4-[4-(3-Chloro-4-methoxy-phenylamino)-6-cycloheptylamino-[1,3,5]triazin-2-yloxy]-phenyl}-2-methyl-but-3-yn-2-ol]", "values": [{"measurement": "activity in anti-proliferation assay (Perlecan), in words", "result": "high activity"}]}
{"compound": "COc1ccc(Nc2nc(NC(C)C)nc(Oc3ccc(C#CC(C)(C)O)cc3)n2)cc1Cl", "note": "[4-{4-[4-(3-Chloro-4-methoxy-phenylamino)-6-isopropylamino-[1,3,5]triazin-2-yloxy]-phenyl}-2-methyl-but-3-yn-2-ol]", "values": [{"measurement": "activity in anti-proliferation assay (Perlecan), in words", "result": "high activity"}]}
{"compound": "COc1ccc(Nc2nc(NNC(=O)CCCCC3SCC4NC(=O)NC43)nc(NC3CCCCCC3)n2)cc1Cl", "note": "(stereo not drawn) [5-(2-Oxo-hexahydro-thieno[3,4-d]imidazol-4-yl)-pentanoic acid N′-[4-(3-chloro-4-methoxy-phenylamino)-6-cycloheptylamino-[1,3,5]triazin-2-yl]-hydrazide]", "values": [{"measurement": "activity in anti-proliferation assay (Perlecan), in words", "result": "high activity"}]}
{"compound": "COc1ccc(Nc2nc(NCCCCCNC(=O)CCCCC3SCC4NC(=O)NC43)nc(NC3CCCCCC3)n2)cc1Cl", "note": "(stereo not drawn) [5-(2-Oxo-hexahydro-thieno[3,4-d]imidazol-4-yl)-pentanoic acid {5-[4-(3-chloro-4-methoxy-phenylamino)-6-cycloheptylamino-[1,3,5]triazin-2-ylamino]-pentyl}-amide]", "values": [{"measurement": "activity in anti-proliferation assay (Perlecan), in words", "result": "high activity"}]}
{"compound": "COc1ccc(Nc2nc(NC3CCCCCC3)nc(Sc3ccccc3C(C)(C)C)n2)cc1Cl", "note": "[6-(2-tert-Butyl-phenylsulfanyl)-N-(3-chloro-4-methoxy-phenyl)-N′-cycloheptyl-[1,3,5]triazine-2,4-diamine]", "values": [{"measurement": "activity in anti-proliferation assay (Perlecan), in words", "result": "high activity"}]}
{"compound": "CCN1CCCC1CNc1nc(Cl)nc(Nc2ccc(OC)c(F)c2)n1", "note": "(stereo not drawn) [6-Chloro-N-(1-ethyl-pyrrolidin-2-yl-methyl)-N′-(3-fluoro-4-meth-oxy-phenyl)-[1,3,5]triazine-2,4-di-amine]", "values": [{"measurement": "IC50", "setting": "[1]", "result": "3 to 7", "unit": "µM"}, {"measurement": "IC50", "setting": "[2]", "result": 6.5, "unit": "µM"}]}
{"compound": "Clc1nc(Cl)nc(NC2CCCCCC2)n1", "note": "[Cycloheptyl-(4,6-dichloro-[1,3,5]tri-azin-2-yl)-amine]", "values": [{"measurement": "IC50", "setting": "[1]", "result": "3 to 7", "unit": "µM"}, {"measurement": "IC50", "setting": "[2]", "result": 3.75, "unit": "µM"}]}
{"compound": "COc1ccc(Nc2nc(NCCN)nc(NC3CCCCCC3)n2)cc1Cl", "note": "[N-(2-Amino-ethyl)-N′-(3-chloro-4-methoxy-phenyl)-N″-cycloheptyl-[1,3,5]triazine-2,4,6-triamine]", "values": [{"measurement": "activity in anti-proliferation assay (Perlecan), in words", "result": "high activity"}]}
{"compound": "CCN1CCCC(Oc2nc(Nc3ccc(OC)c(Cl)c3)nc(NC3CCCCCC3)n2)C1", "note": "(stereo not drawn) [N-(3-Chloro-4-methoxy-phenyl)-N′-cycloheptyl-6-(1-ethyl-piperidin-3-yloxy)-[1,3,5]triazine-2,4-diamine]", "values": [{"measurement": "activity in anti-proliferation assay (Perlecan), in words", "result": "high activity"}]}
{"compound": "COc1ccc(Nc2nc(NC3CCCCCC3)nc(OC3CCN(C)CC3)n2)cc1Cl", "note": "[N-(3-Chloro-4-methoxy-phenyl)-N′-cycloheptyl-6-(1-methyl-piperidin-4-yloxy)-[1,3,5]triazine-2,4-diamine]", "values": [{"measurement": "activity in anti-proliferation assay (Perlecan), in words", "result": "high activity"}]}
